From publication PMC6540285, “Evaluation of Protein Kinase Inhibitors with PLK4 Cross-Over Potential in a Pre-Clinical Model of Cancer” (International Journal of Molecular Sciences, 2019)

Assays:
D283 cells = type: cell-based; conditions: D283, read-out: MTT: IC50 of the proliferation assay
ALK L1196M = ALK L1196M (Homo sapiens, UniProt Q9UM73, L1196M); experiment: SelectScreen kinase profiling, LanthaScreen binding
BRAF V599E = BRAF V599E (Homo sapiens, UniProt P15056, V600E); experiment: as above
CAMK2A (CaMKII alpha) = CAMK2A (CaMKII alpha) (Homo sapiens, UniProt Q9UQM7); experiment: SelectScreen kinase profiling, ZLYTE; type: biochemical
CDK5/p25 = CDK5/p25 (Homo sapiens, UniProt Q00535); experiment: SelectScreen kinase profiling, ZLYTE; type: biochemical; conditions: CDK5/p25, 10 µM
EPHA1 = EPHA1 (Homo sapiens, UniProt P21709); experiment: SelectScreen kinase profiling, ZLYTE; type: biochemical; conditions: EPHA1, 10 µM
P450 2C19 = P450 2C19 (Homo sapiens, UniProt P33261)
ERBB4 (HER4) = ERBB4 (HER4) (Homo sapiens, UniProt Q15303); experiment: SelectScreen kinase profiling, ZLYTE; type: biochemical
FGFR1 V561M = FGFR1 V561M (Homo sapiens, UniProt P11362, V561M); experiment: SelectScreen kinase profiling, LanthaScreen binding
FGFR2 = FGFR2 (Homo sapiens, UniProt P21802); experiment: SelectScreen kinase profiling, ZLYTE; type: biochemical; conditions: FGFR2, 10 µM
P450 2B6 = P450 2B6 (Homo sapiens, UniProt P20813)
ICK = ICK (Homo sapiens, UniProt Q9UPZ9); experiment: SelectScreen kinase profiling, LanthaScreen binding
LRRK2 = LRRK2 (Homo sapiens, UniProt Q5S007); experiment: SelectScreen kinase profiling, Adapta; type: biochemical; conditions: LRRK2, 10 µM
LRRK2 FL = LRRK2 FL (Homo sapiens, UniProt Q5S007); experiment: SelectScreen kinase profiling, Adapta; type: biochemical
LRRK2 G2019S = LRRK2 G2019S (Homo sapiens, UniProt Q5S007, G2019S); experiment: SelectScreen kinase profiling, Adapta; type: biochemical
MAP2K1 (MEK1) = MAP2K1 (MEK1) (Homo sapiens, UniProt Q02750); experiment: SelectScreen kinase profiling, LanthaScreen binding
MAP3K14 (NIK) = MAP3K14 (NIK) (Homo sapiens, UniProt Q99558); experiment: as above
MAP3K19 (YSK4) = MAP3K19 (YSK4) (Homo sapiens, UniProt Q56UN5); experiment: SelectScreen kinase profiling, ZLYTE; type: biochemical
MAP4K5 (KHS1) = MAP4K5 (KHS1) (Homo sapiens, UniProt Q9Y4K4); experiment: SelectScreen kinase profiling, ZLYTE; type: biochemical
MAPK10 (JNK3) = MAPK10 (JNK3) (Homo sapiens, UniProt P53779); experiment: SelectScreen kinase profiling, ZLYTE; type: biochemical
MAPK8 (JNK1) = MAPK8 (JNK1) (Homo sapiens, UniProt P45983); experiment: SelectScreen kinase profiling, LanthaScreen binding
MINK1 = MINK1 (Homo sapiens, UniProt Q8N4C8); experiment: SelectScreen kinase profiling, ZLYTE; type: biochemical; conditions: MINK1, 10 µM
PI4KA (PI4K alpha) = PI4KA (PI4K alpha) (Homo sapiens, UniProt P42356); experiment: SelectScreen kinase profiling, Adapta; type: biochemical
PLK3 = PLK3 (Homo sapiens, UniProt Q9H4B4); experiment: SelectScreen kinase profiling, ZLYTE; type: biochemical; conditions: PLK3, 10 µM
PLK4 = target: T1, PLK4 (Homo sapiens, UniProt O00444); experiment: SelectScreen kinase profiling, LanthaScreen binding; conditions: PLK4, 10 µM
T1 sequence (O00444 1-970): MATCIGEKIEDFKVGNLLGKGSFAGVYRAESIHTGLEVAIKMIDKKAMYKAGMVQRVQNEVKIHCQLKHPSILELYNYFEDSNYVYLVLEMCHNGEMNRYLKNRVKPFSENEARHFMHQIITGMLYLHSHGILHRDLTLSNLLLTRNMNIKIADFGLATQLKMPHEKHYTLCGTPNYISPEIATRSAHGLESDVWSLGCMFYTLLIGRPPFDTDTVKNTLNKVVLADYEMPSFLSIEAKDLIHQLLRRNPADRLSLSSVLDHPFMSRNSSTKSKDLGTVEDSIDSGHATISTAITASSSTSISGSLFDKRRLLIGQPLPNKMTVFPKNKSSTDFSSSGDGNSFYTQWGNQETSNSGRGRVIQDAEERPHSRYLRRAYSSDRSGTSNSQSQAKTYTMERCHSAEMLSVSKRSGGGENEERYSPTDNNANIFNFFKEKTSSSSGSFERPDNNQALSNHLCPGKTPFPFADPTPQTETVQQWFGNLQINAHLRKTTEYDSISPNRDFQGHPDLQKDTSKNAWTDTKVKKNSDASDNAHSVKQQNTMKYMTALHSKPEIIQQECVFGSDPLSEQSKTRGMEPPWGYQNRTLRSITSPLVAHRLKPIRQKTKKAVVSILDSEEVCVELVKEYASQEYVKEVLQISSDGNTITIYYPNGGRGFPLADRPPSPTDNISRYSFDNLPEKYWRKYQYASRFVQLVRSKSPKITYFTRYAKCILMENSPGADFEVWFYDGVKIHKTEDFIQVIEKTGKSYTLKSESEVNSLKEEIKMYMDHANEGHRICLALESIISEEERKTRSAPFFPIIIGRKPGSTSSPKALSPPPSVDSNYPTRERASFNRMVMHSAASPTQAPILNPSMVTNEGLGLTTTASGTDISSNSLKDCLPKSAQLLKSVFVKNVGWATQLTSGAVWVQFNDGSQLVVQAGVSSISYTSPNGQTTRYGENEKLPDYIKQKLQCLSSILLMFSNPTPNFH

PRKACB (PRKAC beta) = PRKACB (PRKAC beta) (Homo sapiens, UniProt P22694); experiment: as above
PRKCE (PKC epsilon) = PRKCE (PKC epsilon) (Homo sapiens, UniProt Q02156); experiment: SelectScreen kinase profiling, ZLYTE; type: biochemical
ULK3 = ULK3 (Homo sapiens, UniProt Q6PHR2); experiment: SelectScreen kinase profiling, LanthaScreen binding; conditions: ULK3, 10 µM

Chain of CAMK2A (CaMKII alpha) (Q9UQM7 whole entry): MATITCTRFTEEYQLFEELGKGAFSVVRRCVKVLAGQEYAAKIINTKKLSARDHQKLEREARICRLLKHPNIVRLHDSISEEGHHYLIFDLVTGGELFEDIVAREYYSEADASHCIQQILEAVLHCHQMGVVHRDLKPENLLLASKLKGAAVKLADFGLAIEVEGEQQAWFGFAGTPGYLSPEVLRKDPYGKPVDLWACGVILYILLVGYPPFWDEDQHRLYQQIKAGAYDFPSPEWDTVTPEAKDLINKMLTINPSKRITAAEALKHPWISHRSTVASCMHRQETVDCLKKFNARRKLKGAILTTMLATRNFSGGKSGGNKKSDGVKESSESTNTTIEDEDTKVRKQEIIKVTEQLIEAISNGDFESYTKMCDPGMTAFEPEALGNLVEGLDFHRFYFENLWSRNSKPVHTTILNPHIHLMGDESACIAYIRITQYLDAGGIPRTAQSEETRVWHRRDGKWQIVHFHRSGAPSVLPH
Chain of LRRK2 FL (Q5S007 whole entry): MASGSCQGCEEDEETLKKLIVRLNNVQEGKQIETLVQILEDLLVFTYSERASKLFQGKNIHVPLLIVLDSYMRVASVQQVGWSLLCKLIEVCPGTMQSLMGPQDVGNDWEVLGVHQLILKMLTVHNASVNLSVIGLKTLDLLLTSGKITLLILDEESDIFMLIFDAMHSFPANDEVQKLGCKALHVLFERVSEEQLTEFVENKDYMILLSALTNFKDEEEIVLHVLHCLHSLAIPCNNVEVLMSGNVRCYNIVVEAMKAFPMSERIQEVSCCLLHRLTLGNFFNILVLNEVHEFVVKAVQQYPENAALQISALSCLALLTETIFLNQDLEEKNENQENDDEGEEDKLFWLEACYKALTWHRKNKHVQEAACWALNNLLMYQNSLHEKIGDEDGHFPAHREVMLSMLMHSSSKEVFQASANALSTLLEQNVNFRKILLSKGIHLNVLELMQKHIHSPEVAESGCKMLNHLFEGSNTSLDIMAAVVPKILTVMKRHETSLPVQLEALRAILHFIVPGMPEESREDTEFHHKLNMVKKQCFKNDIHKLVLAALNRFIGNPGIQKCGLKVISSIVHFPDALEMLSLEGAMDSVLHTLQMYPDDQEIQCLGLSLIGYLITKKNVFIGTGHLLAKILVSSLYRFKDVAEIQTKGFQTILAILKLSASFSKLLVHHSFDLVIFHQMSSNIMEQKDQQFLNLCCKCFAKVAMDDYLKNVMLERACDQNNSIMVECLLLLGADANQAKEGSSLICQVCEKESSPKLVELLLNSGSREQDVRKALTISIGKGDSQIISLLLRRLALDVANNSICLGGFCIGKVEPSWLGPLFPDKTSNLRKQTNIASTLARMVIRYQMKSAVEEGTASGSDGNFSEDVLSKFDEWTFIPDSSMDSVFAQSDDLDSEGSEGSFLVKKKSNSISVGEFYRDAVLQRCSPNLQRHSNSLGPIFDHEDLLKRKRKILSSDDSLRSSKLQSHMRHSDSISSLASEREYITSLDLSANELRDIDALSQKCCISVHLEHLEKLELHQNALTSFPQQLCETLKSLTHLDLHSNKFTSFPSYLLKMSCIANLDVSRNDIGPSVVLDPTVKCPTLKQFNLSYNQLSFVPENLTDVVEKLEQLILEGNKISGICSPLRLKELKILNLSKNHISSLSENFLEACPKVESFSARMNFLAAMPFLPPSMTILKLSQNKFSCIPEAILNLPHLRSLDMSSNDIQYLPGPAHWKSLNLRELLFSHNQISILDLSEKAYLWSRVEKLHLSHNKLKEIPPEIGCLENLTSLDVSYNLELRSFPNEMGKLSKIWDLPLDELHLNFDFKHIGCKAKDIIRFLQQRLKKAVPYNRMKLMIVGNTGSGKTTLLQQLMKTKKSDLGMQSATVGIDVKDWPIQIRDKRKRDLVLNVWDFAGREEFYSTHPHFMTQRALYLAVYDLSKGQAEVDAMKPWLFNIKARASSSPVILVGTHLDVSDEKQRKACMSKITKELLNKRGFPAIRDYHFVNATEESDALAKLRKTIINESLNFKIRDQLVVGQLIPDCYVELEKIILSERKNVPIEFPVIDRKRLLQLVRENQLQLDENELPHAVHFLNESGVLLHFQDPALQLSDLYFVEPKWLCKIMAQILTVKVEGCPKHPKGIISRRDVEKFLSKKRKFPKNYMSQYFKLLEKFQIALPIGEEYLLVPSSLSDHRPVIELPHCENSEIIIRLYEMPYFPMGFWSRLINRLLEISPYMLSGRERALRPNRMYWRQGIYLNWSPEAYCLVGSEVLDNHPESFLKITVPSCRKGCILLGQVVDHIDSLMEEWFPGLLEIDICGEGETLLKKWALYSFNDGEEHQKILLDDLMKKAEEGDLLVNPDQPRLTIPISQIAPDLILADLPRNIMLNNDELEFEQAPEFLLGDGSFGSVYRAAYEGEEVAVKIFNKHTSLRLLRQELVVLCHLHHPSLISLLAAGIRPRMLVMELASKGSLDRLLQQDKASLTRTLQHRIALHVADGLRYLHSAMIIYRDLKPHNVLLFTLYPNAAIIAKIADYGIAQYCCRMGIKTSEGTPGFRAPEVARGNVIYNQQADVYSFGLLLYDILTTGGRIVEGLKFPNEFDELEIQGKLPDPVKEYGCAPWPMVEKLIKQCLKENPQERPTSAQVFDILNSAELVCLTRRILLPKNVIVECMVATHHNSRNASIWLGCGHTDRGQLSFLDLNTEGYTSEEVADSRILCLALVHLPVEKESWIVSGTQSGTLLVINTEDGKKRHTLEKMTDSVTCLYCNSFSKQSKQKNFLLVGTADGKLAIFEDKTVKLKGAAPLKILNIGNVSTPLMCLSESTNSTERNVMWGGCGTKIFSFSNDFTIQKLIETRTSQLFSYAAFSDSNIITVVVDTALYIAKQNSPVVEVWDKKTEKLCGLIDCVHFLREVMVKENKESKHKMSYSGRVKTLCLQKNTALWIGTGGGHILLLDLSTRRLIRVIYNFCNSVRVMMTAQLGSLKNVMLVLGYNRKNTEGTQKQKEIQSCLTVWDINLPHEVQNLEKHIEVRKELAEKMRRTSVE
Chain of LRRK2 (Q5S007 whole entry): as above
Chain of EPHA1 (P21709 26-976): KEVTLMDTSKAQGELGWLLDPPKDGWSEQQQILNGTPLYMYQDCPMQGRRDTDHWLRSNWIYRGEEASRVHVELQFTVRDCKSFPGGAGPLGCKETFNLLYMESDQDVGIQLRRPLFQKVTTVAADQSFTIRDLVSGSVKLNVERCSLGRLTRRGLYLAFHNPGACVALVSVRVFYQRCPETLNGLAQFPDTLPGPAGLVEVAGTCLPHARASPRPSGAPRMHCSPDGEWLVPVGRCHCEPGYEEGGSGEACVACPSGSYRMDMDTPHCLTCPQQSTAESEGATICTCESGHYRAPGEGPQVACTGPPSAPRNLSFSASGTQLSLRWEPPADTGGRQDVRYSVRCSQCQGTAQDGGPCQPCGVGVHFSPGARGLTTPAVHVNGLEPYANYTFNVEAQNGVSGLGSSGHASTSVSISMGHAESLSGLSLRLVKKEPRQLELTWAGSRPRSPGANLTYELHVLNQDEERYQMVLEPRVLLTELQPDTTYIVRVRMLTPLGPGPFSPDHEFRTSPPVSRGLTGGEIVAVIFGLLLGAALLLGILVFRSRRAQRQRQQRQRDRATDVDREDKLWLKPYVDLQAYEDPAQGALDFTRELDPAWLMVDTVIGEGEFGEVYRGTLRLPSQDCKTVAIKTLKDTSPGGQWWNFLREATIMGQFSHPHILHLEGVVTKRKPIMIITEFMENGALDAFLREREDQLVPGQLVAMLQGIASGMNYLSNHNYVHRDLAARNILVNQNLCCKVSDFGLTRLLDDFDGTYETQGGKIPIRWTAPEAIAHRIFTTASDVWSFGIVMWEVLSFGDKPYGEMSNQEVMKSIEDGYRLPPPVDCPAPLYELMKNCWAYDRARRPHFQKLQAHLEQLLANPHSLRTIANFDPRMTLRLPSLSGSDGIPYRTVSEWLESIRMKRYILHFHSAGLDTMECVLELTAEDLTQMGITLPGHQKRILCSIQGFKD
Chain of LRRK2 G2019S (Q5S007 whole entry G2019S): as the sequence (Q5S007 whole entry) above, with G2019S counted along it
Chain of MAPK10 (JNK3) (P53779 whole entry): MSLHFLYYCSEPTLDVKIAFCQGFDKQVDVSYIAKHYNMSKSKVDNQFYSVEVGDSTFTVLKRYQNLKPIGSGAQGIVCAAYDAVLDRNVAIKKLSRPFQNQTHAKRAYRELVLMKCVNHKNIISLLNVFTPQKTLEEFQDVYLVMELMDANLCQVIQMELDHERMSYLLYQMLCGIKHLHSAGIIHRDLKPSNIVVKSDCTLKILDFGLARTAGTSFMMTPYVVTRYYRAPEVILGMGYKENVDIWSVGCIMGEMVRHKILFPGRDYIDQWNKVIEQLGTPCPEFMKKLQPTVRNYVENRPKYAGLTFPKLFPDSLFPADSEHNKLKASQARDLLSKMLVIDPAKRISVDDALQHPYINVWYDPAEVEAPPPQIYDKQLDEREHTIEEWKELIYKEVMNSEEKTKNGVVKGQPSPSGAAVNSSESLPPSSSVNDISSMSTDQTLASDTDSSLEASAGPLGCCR
Chain of BRAF V599E (P15056 416-766 V600E limits assumed): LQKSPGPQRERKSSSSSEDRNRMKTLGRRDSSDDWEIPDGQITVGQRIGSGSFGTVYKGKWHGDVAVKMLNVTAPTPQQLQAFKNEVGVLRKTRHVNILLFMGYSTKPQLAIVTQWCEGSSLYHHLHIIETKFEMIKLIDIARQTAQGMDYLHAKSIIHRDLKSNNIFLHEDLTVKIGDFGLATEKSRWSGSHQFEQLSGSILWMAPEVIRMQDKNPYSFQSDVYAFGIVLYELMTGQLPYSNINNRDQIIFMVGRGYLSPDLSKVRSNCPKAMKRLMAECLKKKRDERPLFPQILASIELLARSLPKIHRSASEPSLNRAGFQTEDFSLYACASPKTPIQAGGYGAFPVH

## O=C(c1ccc(/C=C/c2n[nH]c3ccccc23)cc1)N1CCNCC1 [KW-2449]
D283 cells
  IC50: 8.05 µM
ALK L1196M
  inhibition at 10 µM: 13%
BRAF V599E
  inhibition at 10 µM: 6%
CAMK2A (CaMKII alpha)
  inhibition at 10 µM: 67%
CDK5/p25
  inhibition at 10 µM: 97%
EPHA1
  inhibition at 10 µM: 99%
P450 2C19
  IC50: 9.41 µM
ERBB4 (HER4)
  inhibition at 10 µM: 55%
FGFR1 V561M
  inhibition at 10 µM: 30%
FGFR2
  inhibition at 10 µM: 97%
P450 2B6
  IC50: 9.8 µM
ICK
  inhibition at 10 µM: 74%
LRRK2
  inhibition at 10 µM: 100%
LRRK2 FL
  inhibition at 10 µM: 100%
LRRK2 G2019S
  inhibition at 10 µM: 100%
MAP2K1 (MEK1)
  inhibition at 10 µM: 54%
MAP3K14 (NIK)
  inhibition at 10 µM: 90%
MAP3K19 (YSK4)
  inhibition at 10 µM: 98%
MAP4K5 (KHS1)
  inhibition at 10 µM: 102%
MAPK10 (JNK3)
  inhibition at 10 µM: 59%
MAPK8 (JNK1)
  inhibition at 10 µM: 81%
MINK1
  inhibition at 10 µM: 102%
PI4KA (PI4K alpha)
  inhibition at 10 µM: 7%
PLK3
  inhibition at 10 µM: -10%
PLK4
  inhibition at 10 µM: 61%
PRKACB (PRKAC beta)
  inhibition at 10 µM: 48%
PRKCE (PKC epsilon)
  inhibition at 10 µM: 10%
ULK3
  inhibition at 10 µM: 5%
